“Also recorded” adds a separate entry of the source.
Tests used:
[1] = test system: differentiated adipocytes; test: Adiponectin secretion into conditioned medium of differentiated adipocytes (immunoblot); format: cell-based; details: inhibitors of classical secretory pathways
Source text: FIG. 7A is a photograph of an electrophonetic gel showing non-classical secretion of aP2. Conditioned medium from adipocytes treated with control, brefeldin A (Bref A) or monensin (Mon) were blotted using anti-aP2 or adiponectin antibodies. Whole cell lysate (WCL) was also blotted using anti-aP2 antibody.
(§1) Tissue protein lysate and conditioned medium from adipocytes were separated on SDS-PAGE gels and stained with Coomassie (Biorad Laboratory), or were detected with immunoblotting using the following antibodies: adiponectin from Santa Cruz Biotechnology, MFG-E8 from Calbiochem, caveolin-1 from BD Bioscience, AKT from Cell Signaling Technology. Flag-tagged aP2 was immunoprecipated using 4 ml of conditioned medium from transfected HEK 293 cells after incubation with 30 μl Flag agarose beads (Sigma) overnight at 4° C. Proteins bound to agarose beads were eluted with SDS loading buffer and resolved with SDS-PAGE.

[2] = test system: differentiated adipocytes; test: aP2 secretion into conditioned medium of differentiated adipocytes (immunoblot); format: cell-based; details: for aP2 release from adipocytes treated with inhibitors of classical secretory pathways: conditioned medium blotted with anti-aP2; for lipolysis-induced aP2 secretion from adipocytes: co-treatment of adipocytes in which lipolysis was induced (IBMX/dbcAMP)
Source text: HEK 293 cells were maintained in DMEM with 10% fetal bovine serum. FABP-deficient cell lines were established as previously described. Cao, H. et al. Identification of a lipokine, a lipid hormone linking adipose tissue to systemic metabolism. Cell 134, 933-944 (2008). Makowski, L. et al. Lack of macrophage fatty-acid-binding protein aP2 protects mice deficient in apolipoprotein E against atherosclerosis. Nat Med 7, 699-705 (2001). Pre-adipocytes were maintained in DMEM with 10% bovine calf serum and differentiated into adipocytes in DMEM with 10% cosmic calf serum (CCS) using a standard differentiation protocol. To induce lipolysis, differentiated adipocytes were treated with forskolin at 20 nM, or IBMX 1 mM/dibutyryl cAMP 1 mM for one hour. For lipid treatments, 0.25 mM palmitate or stearate was dissolved in DMEM with 10% CCS and added to adipocytes cultured in 12-well plates. At the end of one hour, the medium was replaced with the same lipid-containing medium, and conditioned medium was collected an additional hour later. To collect fat explants, epididymal adipose tissue depots were dissected from mice and rinsed twice in PBS. Adipose tissue samples were then transferred into DMEM with 10% CCS and minced into an average size of 1 to 2 mm. The tissue explants were washed extensively with DMEM and cultured in DMEM containing 10% CCS. Lipolysis was induced in the same manner as adipocytes.
as §1

[3] = test system: serum aP2; test: Serum aP2 in mice after isoproterenol-induced lipolysis; format: in vivo; details: isoproterenol 10 mg/kg, blood 15 min following injection, vs vehicle
Description: Blood was collected from mice by tail bleeding after 6 hours of food withdrawal and spun in a microcentrifuge at 13,000 rpm for 30 minutes. Serum aP2 was determined with an ELISA system (Biovendor Inc.). […] To determine aP2 levels during lipolysis, blood was collected from 12 mice at baseline levels. After this, 6 mice were injected with isoproterenol (10 mg/kg body weight) and the other 6 received vehicle control. Blood samples were collected 15 min following injection for aP2 measurement.

[4] = Serum aP2 ELISA after recombinant aP2 injection or infusion; format: in vivo, mice
Description: FIG. 11 is a bar graph showing serum aP2 in WT mice after recombinant aP2 injection. Serum samples of mice were collected at indicated time points after aP2 injection and aP2 levels were determined with an aP2 ELISA.
FIG. 13 is a line graph showing Serum aP2 in FABP-deficient (DKO) mice during aP2 infusion. Serum samples were collected from FABP-deficient mice during aP2 infusion at indicated time points. Serum aP2 levels were determined with an aP2 ELISA.
Blood was collected from mice by tail bleeding after 6 hours of food withdrawal and spun in a microcentrifuge at 13,000 rpm for 30 minutes. Serum aP2 was determined with an ELISA system (Biovendor Inc.). To monitor nutritional regulation of serum aP2, blood samples were collected from mice immediately prior to the start of dark cycle after which animals were placed in cages without food. After 24 hours of fasting, a second set of blood samples were collected and food was provided. Final blood sampling was performed 4 hours after re-feeding. To determine aP2 levels during lipolysis, blood was collected from 12 mice at baseline levels. After this, 6 mice were injected with isoproterenol (10 mg/kg body weight) and the other 6 received vehicle control. Blood samples were collected 15 min following injection for aP2 measurement. […]

[5] = test system: WT mice maintained on regular chow diet; test: Glucose tolerance test of regular diet mice injected with recombinant aP2; format: in vivo; details: lean WT mice, recombinant aP2 100 μg twice a day for two weeks, vs control Gus protein
Source text: FIG. 6I is a line graph showing glucose tolerance test of mice on regular diet injected with control Gus protein or recombinant aP2 for two weeks. *, p<0.05. Mice with homozygous null mutations in aP2 and mall were backcrossed more than 12 generations into a C57BL/6J genetic background. Mice were maintained on regular chow diet (RD) or placed on high-fat diet (Research Diets, Inc) at 4 weeks of age for 20 weeks to induce dietary obesity. Leptin-deficient (ob/ob) mice were purchased from the Jackson laboratory. All mice were maintained on a 12-hour light and dark cycle. Glucose and insulin tolerance tests using standard methods. Recombinant aP2 or control Gus protein with 6×His tag was produced in E. coli and purified with B-PER 6×His Spin Purification Kit (Pierce Biotechnology, Inc). Proteins were further purified by removing endotoxin with a commercial system (Lonza Inc.). 100 μg of control or aP2 protein was injected into WT mice maintained on regular chow diet twice a day for two weeks. The rabbit polyclonal antibody against mouse aP2 was produced using recombinant, full-length aP2 protein and the antibody was purified from serum of the final bleed using the NAb™ Spin system (Pierce Biotechnology, Inc). Pre-immune serum was purified similarly and used as control. […]

[6] = test system: PEPCK and G6P; test: Liver gluconeogenic gene expression by quantitative real-time PCR; format: in vivo; details: WT mice infused with recombinant aP2 vs control protein
Description: FIG. 6K is a bar graph showing gene expression in livers of WT mice infused with control protein or recombinant aP2 (top panel) or mice on HFD injected with control or aP2 antibody (bottom panel). PEPCK and G6P in liver tissues were analyzed with quantitative real-time PCR. *, p<0.05.
Total RNA was isolated from liver tissues using Trizol reagent (Invitrogen). Reverse transcription was carried out with a superscript first-strand cDNA synthesis system (Applied Biosystems Inc.) using 1 μg of RNA. Quantitative, real-time RT-PCR was performed on a PCR thermal cycler (Applied Biosystems Inc.). The PCR program was: 2 min 30 s at 95° C. for enzyme activation, 40 cycles of 15 s at 95° C., 30 s at 58° C., and 1 min at 72° C. for extension. Melting curve analysis was performed to confirm the real-time PCR products. All quantitations were normalized to the 1 8S rRNA. Primer sequences used were the following: PEPCK, forward: […](SEQ ID NO: 5), reverse: CAGCAACTGCCCGTACTCC (SEQ ID NO: 6); G6P, forward: […] (SEQ ID NO:7), reverse: […] (SEQ ID NO: 8).

[7] = test system: FABP-deficient mice; test: Hyperinsulinemic-euglycemic clamp in FABP-deficient mice infused with recombinant aP2; format: in vivo
Description: The mice were fasted overnight before the experiments and were infused with Intralipid at 3 ml/kg/h (Abbott) and heparin (6 U/h) for 5 hours. […] Mice were catheterized as described above. Hyperinsulinemic-euglycemic clamps were performed by a modification of a reported procedure^15. After an overnight fast, HPLC purified [3H]-glucose (0.05 μCi/min; PerkinElmer Life and Analytical Sciences, Boston, Mass.) was infused during the 2-h basal period, and blood samples were collected at the end to estimate the rate of basal hepatic glucose production. After the basal period, a 120-min hyperinsulinemic-euglycemic clamp was conducted with a primed-continuous infusion of human insulin (Humulin R; Eli Lilly, Indianapolis, Ind.) at a rate of 12.5 mU/kg/min. Blood samples were collected at 20-min intervals for the immediate measurement of plasma glucose concentrations, and 25% glucose was infused at variable rates to maintain plasma glucose at basal concentrations. Insulin-stimulated whole-body glucose turnover was estimated with a continuous infusion of [3-^3H]-glucose throughout the clamps (0.1 μCi/min). All infusions were performed using flow-controlled microdialysis pumps (CMA/Microdialysis, North Chelmsford, Mass.). Blood samples were taken at 80, 85, 90, 100, 110, and 120 min after the start of clamps for the determination of plasma [^3H]-glucose, and ^3H2O concentrations. […]

## C[C@H]1CCC/C=C/[C@@H]2C[C@H](O)C[C@H]2[C@H](O)/C=C/C(=O)O1 [brefeldin A]
[1]
  adiponectin secretion from adipocytes: efficiently blocked adiponectin secretion
[2]
  aP2 release from adipocytes treated with inhibitors of classical secretory pathways: neither had any inhibitory effect

## CC(C)NCC(O)c1ccc(O)c(O)c1 (centres unmarked) [isoproterenol]
[3]
  serum aP2 levels: rapid increase in serum aP2 levels

## CC[C@@]1([C@@H]2O[C@@H]([C@H]3O[C@@](O)(CO)[C@H](C)C[C@@H]3C)C[C@@H]2C)CC[C@H]([C@]2(C)CC[C@]3(C[C@H](O)[C@@H](C)[C@@H]([C@@H](C)[C@@H](OC)[C@H](C)C(=O)O)O3)O2)O1 [monensin]
[1]
  adiponectin secretion from adipocytes: efficiently blocked adiponectin secretion
[2]
  aP2 release from adipocytes treated with inhibitors of classical secretory pathways: neither had any inhibitory effect

## diethylumbelliferyl phosphate [DEUP]
[2]
  lipolysis-induced aP2 secretion from adipocytes: completely blocked lipolysis-induced aP2 secretion

## insulin
[2]
  lipolysis-induced aP2 secretion from adipocytes: aP2 secretion was suppressed

B1: recombinant aP2: Recombinant aP2 with 6×His tag produced in E. coli, purified, endotoxin removed (protein)
chain: CDAFVGTWKLVSSENFDDYMKEVGVGFATRKVAGMAKPNMIISVNGDLVTIRSESTFKNTEISFKLGVEFDEITADDRKVKSIITLDGGALVQVQKWDGKSTTIKRKRDGDKLVVECVMKGVTSTRVYERA
[4]; FABP-deficient mice, infusion 8 μg/kg/min
  serum aP2 levels during aP2 infusion: rapid increase in serum aP2 levels
[4]; WT mice on regular chow diet, injection
  serum aP2 levels after a single dose of recombinant aP2: increased levels of serum aP2 that lasted for several hours
[5]
  glucose tolerance in glucose tolerance test: mild glucose intolerance; also recorded: developed glucose intolerance
[6]
  G6P gene expression in liver: significantly upregulated
  PEPCK gene expression in liver: significantly upregulated
[7]; FABP-deficient mice infused with recombinant aP2
  glucose metabolism rates: absence of alterations in glucose metabolism rates
[7]; FABP-deficient mice infused with recombinant aP2 for 4 hours, vs control protein
  basal hepatic glucose production (bHGP): significantly increased basal hepatic glucose production

From patent US10882901B2, “Methods of treating diabetes by an adipocyte protein 2 specific antibody” (President and Fellows of Harvard College, priority 2009, dated 2021)
